Assay results taken from patent US20060069123A1, “Substituted dipiperidine CCR2 antagonists” (priority 2004, published 2006).
Like-named read-outs stand apart in the source and are kept apart here.

Key:
[1] = system: THP-1 cells; conditions: for inhibition at 25 µM: THP-1, read-out: Inhibition of MCP-1 Induced Calcium Ion Influx, percent inhibition
[2] = system: THP-1 cells; experiment: MCP-1 Induced Chemotaxis in THP-1 Cells; format: cell-based; conditions: read-out: Inhibition of MCP-1 Induced Chemotaxis IC50
[3] = target: T1, CCR2 (Homo sapiens, UniProt P41597); conditions: for Inhibition of MCP-1 Binding, percent inhibition: test concentration of 25 μM, IC50 not obtained
T1 sequence (P41597 1-360 isoform P41597-2): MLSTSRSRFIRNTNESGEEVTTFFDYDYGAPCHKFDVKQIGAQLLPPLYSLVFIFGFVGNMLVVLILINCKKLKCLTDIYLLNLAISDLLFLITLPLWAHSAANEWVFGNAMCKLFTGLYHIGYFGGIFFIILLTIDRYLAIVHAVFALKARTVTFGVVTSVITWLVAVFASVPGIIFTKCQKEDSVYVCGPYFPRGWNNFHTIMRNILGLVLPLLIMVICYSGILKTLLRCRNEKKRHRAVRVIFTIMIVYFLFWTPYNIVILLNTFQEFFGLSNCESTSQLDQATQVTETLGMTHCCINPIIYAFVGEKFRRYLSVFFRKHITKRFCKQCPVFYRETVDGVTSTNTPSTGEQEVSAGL

[4] = Homo sapiens, THP-1, read-out: Inhibition of MCP-1 Induced Calcium Ion Influx IC50
[5] = Homo sapiens, THP-1 cells, MCP-1 0.01 μg/mL, 3 hours
[6] = read-out: Inhibition of MCP-1 Induced Calcium Ion Influx IC50, THP-1 cells, 0.2 μM MCP-1, FLIPR
[7] = THP-1 cells, MCP-1 0.01 μg/mL, 3 hours
[8] = Homo sapiens, THP-1, read-out: Inhibition of MCP-1 Induced Calcium Ion Influx IC50, THP-1 cells, 0.2 μM MCP-1, FLIPR

Compound	IC50 [1, 4]	IC50 [3]	further results
O=C(O)[C@@H](C1CCN(C(=O)/C=C/c2cc(F)c(F)c(F)c2)CC1)N1CCC(c2c[nH]c3ccccc23)CC1 [Cpd 14]	1130 nM	–	IC50 ([2]; Homo sapiens, THP-1, 3 h): 70 nM
O=C(O)C(C1CCN(C(=O)Nc2cc(F)cc(C(F)(F)F)c2)CC1)N1CCC(c2c[nH]c3ccccc23)CC1 (stereo not drawn) [Cpd 65, [1-(3-fluoro-5-trifluoromethyl-phenylcarbamoyl)-piperidin-4-yl]-[4-(1H-indol-3-yl)-piperidin-1-yl]-acetic acid]	120 nM	353 nM	IC50 [2, 5]: 1600 nM
COC(=O)C(C1CCN(C(=O)/C=C/c2cc(F)c(F)c(F)c2)CC1)N1CCC(c2c[nH]c3ccccc23)CC1 (stereo not drawn) [Cpd 87, [4-(1H-indol-3-yl)-piperidin-1-yl]-{1-[(2E)-3-(3,4,5-trifluoro-phenyl)-acryloyl]-piperidin-4-yl}-acetic acid methyl ester]	360 nM	–	IC50 ([2]; Homo sapiens, THP-1, 3 h): 1000 nM
O=C(O)C(C1CCN(C(=O)Nc2ccc(Cl)cc2)CC1)N1CCC(c2c[nH]c3ccccc23)CC1 (stereo not drawn) [Cpd 88, [1-(4-chloro-phenylcarbamoyl)-piperidin-4-yl]-[4-(1H-indol-3-yl)-piperidin-1-yl]-acetic acid]	410 nM	–	IC50 [2, 5]: 240 nM
O=C(O)C(C1CCN(C(=O)Nc2ccc(Br)cc2)CC1)N1CCC(c2c[nH]c3ccccc23)CC1 (stereo not drawn) [Cpd 89, [1-(4-bromo-phenylcarbamoyl)-piperidin-4-yl]-[4-(1H-indol-3-yl)-piperidin-1-yl]-acetic acid]	470 nM	95 nM	IC50 [2, 5]: 210 nM
O=C(O)C(C1CCN(C(=O)Nc2cccc(F)c2)CC1)N1CCC(c2c[nH]c3ccccc23)CC1 (stereo not drawn) [Cpd 91, [1-(3-fluoro-phenylcarbamoyl)-piperidin-4-yl]-[4-(1H-indol-3-yl)-piperidin-1-yl]-acetic acid]	890 nM	305 nM	IC50 [2, 5]: 270 nM
O=C(O)C(C1CCN(C(=O)Nc2cccc(C(F)(F)F)c2)CC1)N1CCC(c2c[nH]c3ccccc23)CC1 (stereo not drawn) [Cpd 97, [4-(1H-indol-3-yl)-piperidin-1-yl]-[1-(3-trifluoromethyl-phenylcarbamoyl)-piperidin-4-yl]-acetic acid]	970 nM	250 nM	IC50 [2, 5]: 230 nM
Cc1ccc(NC(=O)N2CCC(C(C(=O)O)N3CCC(c4c[nH]c5ccccc45)CC3)CC2)cc1C (stereo not drawn) [Cpd 100, [1-(3,4-dimethyl-phenylcarbamoyl)-piperidin-4-yl]-[4-(1H-indol-3-yl)-piperidin-1-yl]-acetic acid]	480 nM	–	IC50 ([2]; Homo sapiens, THP-1, 3 h): 940 nM
O=C(/C=C/c1cccc(C(F)(F)F)c1)N1CCC(C(CO)N2CCC(c3c[nH]c4ccccc34)CC2)CC1 (stereo not drawn) [Cpd 119, (2E)-1-(4-{2-hydroxy-1-[4-(1H-indol-3-yl)-piperidin-1-yl]-ethyl}-piperidin-1-yl)-3-(3-trifluoromethyl-phenyl)-propenone]	8 nM	–	IC50 [2, 5]: 10 nM
OCC(C1CCN(C(=S)Nc2cc(F)cc(F)c2)CC1)N1CCC(c2c[nH]c3ccccc23)CC1 (stereo not drawn) [Cpd 124, 4-{2-hydroxy-1-[4-(1H-indol-3-yl)-piperidin-1-yl]-ethyl}-piperidine-1-carbothioic acid (3,5-difluoro-phenyl)-amide]	70 nM	130 nM	–
N=C(NC(=O)c1ccc(Cl)c(Cl)c1)N1CCC(C(CO)N2CCC(c3c[nH]c4ccccc34)CC2)CC1 (stereo not drawn) [Cpd 128, 3,4-dichloro-N-[(4-{2-hydroxy-1-[4-(1H-indol-3-yl)-piperidin-1-yl]-ethyl}-piperidin-1-yl)-imino-methyl]-benzamide]	20 nM	320 nM	–
COc1ccc2c(C3CCN(C(CO)C4CCN(C(=O)/C=C/c5cc(F)c(F)c(F)c5)CC4)CC3)c[nH]c2c1 (stereo not drawn) [Cpd 132, (2E)-1-(4-{2-hydroxy-1-[4-(6-methoxy-1H-indol-3-yl)-piperidin-1-yl]-ethyl}-piperidin-1-yl)-3-(3,4,5-trifluoro-phenyl)-propenone]	–	–	IC50 [1, 6]: 3 nM; IC50 [2, 7]: 70 nM
COc1ccc(C2CCN(C(CO)C3CCN(C(=O)c4cc5cc(Cl)ccc5o4)CC3)CC2)cc1 (stereo not drawn) [Cpd 160, (5-chloro-benzofuran-2-yl)-(4-{2-hydroxy-1-[4-(4-methoxy-phenyl)-piperidin-1-yl]-ethyl}-piperidin-1-yl)-methanone]	–	–	inhibition at 25 µM ([1]; Homo sapiens): 33%; inhibition at 25 µM ([3]; read-out: Inhibition of MCP-1 Binding, percent inhibition): 56%
COc1ccc2c(C3CCN(C(CO)C4CCN(C(=O)/C=C/c5cc(F)c(F)c(F)c5)CC4)CC3)c[nH]c2c1 (stereo not drawn) [Cpd 167, (2E)-1-(4-{2-hydroxy-1-[4-(6-methoxy-1H-indol-3-yl)-piperidin-1-yl]-ethyl}-piperidin-1-yl)-3-(3,4,5-trifluoro-phenyl)-propenone]	–	–	IC50 [1, 6]: 30 nM; IC50 [2, 7]: 30 nM
O=C(/C=C/c1cccc(C(F)(F)F)c1)N1CCC(C(CO)N2CCC(c3ccncc3)CC2)CC1 (stereo not drawn) [Cpd 184, (2E)-1-{4-[2-hydroxy-1-(3,4,5,6-tetrahydro-2H-[4,4′]bipyridinyl-1-yl)-ethyl]-piperidin-1-yl}-3-(3-trifluoromethyl-phenyl)-propenone]	–	1600 nM	inhibition at 25 µM ([1]; Homo sapiens): 14%
O=C(/C=C/c1ccc(Cl)c(Cl)c1)N1CCC(C(CO)N2CCC(c3c[nH]c4ncccc34)CC2)CC1 (stereo not drawn) [Cpd 208, (2E)-3-(3,4-dichloro-phenyl)-1-(4-{2-hydroxy-1-[4-(1H-pyrrolo[2,3-b]pyridin-3-yl)-piperidin-1-yl]-ethyl}-piperidin-1-yl)-propenone]	–	–	IC50 [1, 8]: 0.8 nM; IC50 ([2]; Homo sapiens, THP-1, 3 h, THP-1 cells, MCP-1 0.01 μg/mL, 3 hours): 13 nM
CC(=O)NCC(C1CCN(C(=O)/C=C/c2cc(F)c(F)c(F)c2)CC1)N1CCC(c2c[nH]c3ccccc23)CC1 (stereo not drawn) [Cpd 213, N-(2-[4-(1H-indol-3-yl)-piperidin-1-yl]-2-{1-[(2E)-3-(3,4,5-trifluoro-phenyl)-acryloyl]-piperidin-4-yl}-ethyl)-acetamide]	90 nM	–	IC50 [2, 5]: 170 nM
CC(=O)NCC(C1CCN(C(=O)/C=C/c2cccc(C(F)(F)F)c2)CC1)N1CCC(c2c[nH]c3ccccc23)CC1 (stereo not drawn) [Cpd 218]	1900 nM	370 nM	–
CC(=O)NCC(C1CCN(C(=O)/C=C/c2ccsc2)CC1)N1CCC(c2c[nH]c3ccccc23)CC1 (stereo not drawn) [Cpd 219]	–	340 nM	inhibition at 25 µM ([1]; Homo sapiens): 52%
O=CNCC(C1CCN(C(=O)/C=C/c2cc(F)c(F)c(F)c2)CC1)N1CCC(c2c[nH]c3ccccc23)CC1 (stereo not drawn) [Cpd 220]	960 nM	440 nM	–
NC(=O)C(C1CCN(C(=O)/C=C/c2cc(F)c(F)c(F)c2)CC1)N1CCC(c2c[nH]c3ncccc23)CC1 (stereo not drawn) [Cpd 227, 2-[4-(1H-pyrrolo[2,3-b]pyridin-3-yl)-piperidin-1-yl]-2-{1-[(2E)-3-(3,4,5-trifluoro-phenyl)-acryloyl]-piperidin-4-yl}-acetamide]	–	–	IC50 [1, 8]: 870 nM; IC50 ([3]; Inhibition of MCP-1 Binding IC50, 125I labeled MCP-1 binding to CCR2, THP-1 cells): 960 nM
CCNC(=O)NCC(C1CCN(C(=O)/C=C/c2ccc(F)c(Br)c2)CC1)N1CCC(c2c[nH]c3ccccc23)CC1 (stereo not drawn) [Cpd 233]	1800 nM	660 nM	–
O=C(C=Cc1ccc(Cl)c(Cl)c1)N1CCC(C(CO)N2CCC(c3ccc(Cl)cc3)CC2)CC1 (stereo not drawn) [Cpd 244, (2E)-1-(4-{1-[4-(4-chloro-phenyl)-piperidin-1-yl]-2-hydroxy-ethyl}-piperidin-1-yl)-3-(3,4-dichloro-phenyl)-propenone]	80 nM	260 nM	–
O=C(/C=C/c1ccc(Cl)c(Cl)c1)N1CCC(C(CCl)N2CCC(c3ccc(Cl)cc3)CC2)CC1 (stereo not drawn) [Cpd 245]	400 nM	2170 nM	–
O=C(C=Cc1cc(F)c(F)c(F)c1)N1CCC(C(CO)N2CCC(c3ccc(Cl)cc3)CC2)CC1 (stereo not drawn) [Cpd 246, (2E)-1-(4-{1-[4-(4-chloro-phenyl)-piperidin-1-yl]-2-hydroxy-ethyl}-piperidin-1-yl)-3-(3,4,5-trifluoro-phenyl)-propenone]	20 nM	70 nM	–
COc1ccc(C2CCN(C(CO)C3CCN(C(=O)C#Cc4cc(F)c(F)c(F)c4)CC3)CC2)cc1 (stereo not drawn) [Cpd 253, 1-(4-{2-hydroxy-1-[4-(4-methoxy-phenyl)-piperidin-1-yl]-ethyl}-piperidin-1-yl)-3-(3,4,5-trifluoro-phenyl)-propynone]	–	–	IC50 [1, 6]: 3900 nM; Inhibition of MCP-1 Binding, percent inhibition [3]: 42%
O=C(/C=C/c1cc(F)cc(F)c1)N1CCC(C(CO)N2CCC(c3nc4cc(Cl)c(Cl)cc4[nH]3)CC2)CC1 (stereo not drawn) [Cpd 256, (2E)-1-(4-{1-[4-(5,6-dichloro-1H-benzoimidazol-2-yl)-piperidin-1-yl]-2-hydroxy-ethyl}-piperidin-1-yl)-3-(3,5-difluoro-phenyl)-propenone]	–	–	IC50 [1, 6]: 11000 nM; Inhibition of MCP-1 Binding, percent inhibition [3]: 25%
O=C(/C=C/c1ccc(Cl)cc1)N1CCC(C(CO)N2CCC(c3ccc(Cl)cc3)CC2)CC1 (stereo not drawn) [Cpd 258, (2E)-3-(4-chloro-phenyl)-1-(4-{1-[4-(4-chloro-phenyl)-piperidin-1-yl]-2-hydroxy-ethyl}-piperidin-1-yl)-propenone]	2300 nM	200 nM	–
